{
  "source": "patent US5955082A",
  "about": "“Insecticidal factor from field peas” (Her Majesty the Queen in right of Canada, as represented by …, priority 1997, dated 1999)",
  "molecules": {"B1": {"name": "Pea lectin: pea lectin, native form (protein, UniProt P02867 31-217; P02867 218-275, looked up)", "Lectin beta chain": "TETTSFLITKFSPDQQNLIFQGDGYTTKEKLTLTKAVKNTVGRALYSSPIHIWDRETGNVANFVTSFTFVINAPNSYNVADGFTFFIAPVDTKPQTGGGYLGVFNSAEYDKTTQTVAVEFDTFYNAAWDPSNRDRHIGIDVNSIKSVNTKSWKLQNGEEANVVIAFNAATNVLTVSLTYPNSLEEEN", "Lectin alpha chain": "VTSYTLSDVVSLKDVVPEWVRIGFSATTGAEYAAHEVLSWSFHSELSGTSSSKQAADA"}},
  "key": {"S. oryzae": {"system": "S. oryzae", "experiment": "Wheat flour disk feeding bioassay of lectins and trypsin inhibitors", "assay_type": "in vivo", "details": "for Feeding Rate (% of Control): 1% w/w in wheat flour disk; for Activity against S. oryzae: native form, 1% w/w", "method": "Lectins and trypsin inhibitors shown in Table 20 were assayed in their native form to determine their activity against S. oryzae in the wheat flour disk bioassay."}, "rice weevil": {"system": "rice weevil", "experiment": "Flour disk feeding bioassay", "assay_type": "in vivo, Sitophilus oryzae (L.)", "method": "The rice weevil [Sitophilus oryzae (L.)] was used for all bioassays. One ml of an aqueous solution containing test material was mixed with 200 mg wheat flour. Distilled water was used as a control. Approximately 100 μl of the stirred suspension were removed and placed in the bottom of a polystyrene Petri dish, and allowed to air dry overnight at room temperature to produce the flour disks. The disks were equilibrated at 30±1° C. and 70±5% r.h. for 24 hr to stabilize the moisture content. Individual weighed disks and 5 adult beetles (1 to 7 days old, starved for 24 hrs before use) were transferred to petri dishes and kept at 30±1° C. and 70±5% r.h. for 4 days (5 replicates) before the remains of the flour disk were weighed.\nSaponins, characterized by their bitter taste, foaming in aqueous solutions and haemolytic activity, are a diverse group of secondary plant metabolites containing a carbohydrate moiety (mono- or oligosaccharide) attached to either a steroid (C27) or a triterpenoid (C30). Saponins are reported to have insecticidal activity. Saponin extractions were prepared from the seeds of commercial peas (Pisum sativum). Approximately 100 g seeds were milled with a Stein mill for 5 minutes and 10 g flour was extracted with 1000 ml chloroform for 16 hrs in a Soxhlet extractor to remove pigments and lipids. Three hundred mg air-dried defatted flour was refluxed for 5 min with 60 ml 80% MeOH, then transferred to a centrifuge tube with 2×5 ml 80% MeOH rinse. The slurry extracts were centrifuged at 10,000 rpm for 10 min. The pellet was dried at room temperature for testing the residual insecticidal activities and the supernatant was evaporated to 7-8 ml under reduced pressure in a rotary evaporator at 37° C. The solution and additional 3 ml distilled water rinse were applied to a reverse phase C18 cartridge (Sep Pak, C18). The column was washed with 3×5 ml 30% MeOH then eluted with 4×5 ml MeOH. The MeOH elute was evaporated to dryness in a rotary evaporator, and then dissolved in 6 ml distilled water (at a concentration equivalent to 50 mg defatted flour per ml). This extract was used for bioassay.\nOne ml saponin extract (50 mg equivalent/ml) was loaded on ion exchange columns (2 ml volume) with Dowex AG-SOW [H^+ ] and Dowex AG-1 [Cl^- ] respectively. The columns were eluted with 10 ml distilled water. The water elute was evaporated to dryness in a rotary evaporator, and then dissolve in 1 ml distilled water. The water fractions were used for HPLC analysis and bioassay.\nThe bioassays were as described in the preceding example."}},
  "data": [
    {"molecule": "Soybean trypsin inhibitor", "values": [
      {"measurement": "Feeding Rate (% of Control)", "setting": "S. oryzae", "value": 98.7, "unit": "%"},
      {"measurement": "Activity against S. oryzae", "setting": "S. oryzae", "value": "inactive"}
    ]},
    {"molecule": "CC1OC(OC2C(OC3C(OC4CCC5(C)C(CCC6(C)C5CC=C5C7CC(C)(C)CC(O)C7(C)CCC56C)C4(C)CO)OC(C(=O)O)C(O)C3O)OC(CO)C(O)C2O)C(O)C(O)C1O", "note": "(centres unmarked) [Soyasaponin I]", "values": [
      {"measurement": "Food consumption", "setting": "rice weevil; 0.63 mg/g", "value": 0.52, "unit": "mg/day/insect"},
      {"measurement": "Food consumption, % of control", "setting": "rice weevil; 0.63 mg/g", "value": 99.8, "unit": "%"},
      {"measurement": "Food consumption", "setting": "rice weevil; 1.25 mg/g", "value": 0.44, "unit": "mg/day/insect"},
      {"measurement": "Food consumption, % of control", "setting": "rice weevil; 1.25 mg/g", "value": 84.2, "unit": "%"},
      {"measurement": "Food consumption", "setting": "rice weevil; 2.50 mg/g", "value": 0.43, "unit": "mg/day/insect"},
      {"measurement": "Food consumption, % of control", "setting": "rice weevil; 2.50 mg/g", "value": 82.8, "unit": "%"},
      {"measurement": "Food consumption", "setting": "rice weevil; 5.00 mg/g", "value": 0.46, "unit": "mg/day/insect"},
      {"measurement": "Food consumption, % of control", "setting": "rice weevil; 5.00 mg/g", "value": 88.4, "unit": "%"},
      {"measurement": "Food consumption", "setting": "rice weevil; 10.0 mg/g", "value": 0.51, "unit": "mg/day/insect"},
      {"measurement": "Food consumption, % of control", "setting": "rice weevil; 10.0 mg/g", "value": 97.9, "unit": "%"},
      {"measurement": "Activity against the test insect", "setting": "rice weevil; ~0.6 mg/g and up to 10 mg/g", "value": "not active"}
    ]},
    {"molecule": "Concanavalin A", "values": [
      {"measurement": "Feeding Rate (% of Control)", "setting": "S. oryzae", "value": 82.5, "unit": "%"},
      {"measurement": "Activity against S. oryzae", "setting": "S. oryzae", "value": "weakly active"}
    ]},
    {"molecule": "B1", "values": [
      {"measurement": "Feeding Rate (% of Control)", "setting": "S. oryzae", "value": 71.4, "unit": "%"},
      {"measurement": "Activity against S. oryzae", "setting": "S. oryzae", "value": "weakly active"}
    ]}
  ]
}
